According to the supplement of paper PMC6470124:

Experiments:
[1] = absolute recovery over mixed-bed multilayer solid-phase extraction; higher = better recovery; conditions: enrichment method: SPE
How it was run: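 Absolute recovery was calculated by comparing background-corrected response ratios of samples spiked before extraction with those spiked after it, averaged over at least two replicates. Wastewater (100–250 mL, adjusted to pH 6.5 and glass-fibre filtered) or 1000 mL of unfiltered nanopure water was passed through a three-layer mixed-bed cartridge and eluted with basic and then acidic ethyl acetate/methanol. Standards were added before extraction, after extraction, or not at all, at 200 ng/L in water or 1000 ng/L in wastewater, with exceptions for some classes. Internal standards were added afterwards, and samples were analysed by liquid chromatography with high-resolution tandem mass spectrometry in both ionisation modes.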

[2] = LC retention time (Atlantis T3, 5-95% MeOH gradient, 0.1% formic acid); higher = more retained / less polar
How it was run: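 Retention times were recorded for reference standards on a polar reversed-phase C18 column. The standards were of purity ≥ 95%, and the Atlantis T3 column (3 × 150 mm, 3 μm) was run at 0.3 mL/min with a gradient from 5 to 95% methanol over 17.5 min, both water and methanol containing 0.1% formic acid. Detection used high-resolution tandem mass spectrometry on a QExactive Plus, with positive and negative electrospray in separate runs, and peaks were integrated in TraceFinder (5 ppm tolerance, at least three points per peak) before being checked by hand.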

[3] = absolute recovery over vacuum-assisted evaporative concentration; higher = better recovery; conditions: enrichment method: VEC
How it was run: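 Standards were spiked into water samples before concentration, after concentration or not at all; volumes were 6 mL influent, 15 mL effluent and 60 mL surface or nanopure water. Spiking levels were 200 ng/L for nanopure and surface water and 1000 ng/L for wastewater, adjusted by class and compound. After evaporation at 55 °C and 20 mbar to about 0.3 mL, samples were brought to 0.4 mL, centrifuged, given internal standards and analysed by LC-HRMS/MS. Absolute recovery equals (response ratio pre − unspiked)/(post − unspiked) × 100, based on averages of ≥ 2 replicates.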

Row | SMILES | absolute recovery ([1]; nanopure water) | absolute recovery ([1]; surface water) | absolute recovery ([1]; wastewater effluent) | absolute recovery ([1]; wastewater influent) | LC retention time [2] | absolute recovery ([3]; wastewater effluent) | absolute recovery ([3]; wastewater influent)
1 | c1ccc2c(c1)Cc1ccccc1N1CC[NH2+]CC21 (stereo not given) [Normianserin] | 79.1% | 95.2% | 83.6% | 85.6% | 14.8 min | 94.1% | 84.1%
2 | c1cncc(C2CCC[NH2+]2)c1 (stereo not given) [Nornicotine] | 65.4% |  | 47.9% | 43.6% | 4.38 min | 111% | 118%
3 | COc1ccc2c(c1OC)C(=O)OC2C1c2c(cc3c(c2OC)OCO3)CC[NH+]1C (stereo not given) [Noscapin] | 80.1% | 89.2% | 91.8% | 103% | 12.8 min | 85.7% | 89.8%
4 | C[NH+](C)CC(c1ccc(O)cc1)C1(O)CCCCC1 (stereo not given) [O-Desvenlafaxin] | 97.4% | 89.9% | 90.6% | 77.7% | 12 min |  | 97.9%
5 | C[NH+](C)CCC=C1c2ccccc2COc2ccc(CC(=O)[O-])cc21 [Olopatadine] | 82.8% | 86.5% | 91.2% | 84.9% | 14.9 min | 100% | 102%
6 | CCCN(CCC)c1c([N+](=O)[O-])cc(S(N)(=O)=O)cc1[N+](=O)[O-] [Oryzalin] | 97% | 102% | 94% | 109% | 20.2 min | 105% | 91.7%
7 | CCC(CC)OC1C=C(C(=O)[O-])CC([NH3+])C1NC(C)=O (stereo not given) [Oseltamivir-carboxylat] | 75.9% | 24.7% | 44.2% | 60.1% | 12.5 min | 105% | 105%
8 | CCOC(=O)C1=CC(OC(CC)CC)C(NC(C)=O)C([NH3+])C1 (stereo not given) [Oseltamivir] | 69.9% | 77.5% | 77.3% | 80.4% | 14.7 min | 101% | 107%
9 | Cc1onc(-c2ccccc2)c1C(=O)NC1C(=O)N2C1SC(C)(C)C2C(=O)[O-] (stereo not given) [Oxacillin] | 61.2% | 10.8% | 21.2% | 33.4% | 18.4 min | 91.3% | 
10 | Cc1cc(C)nc(NC(=O)[N-]S(=O)(=O)c2ccccc2C(=O)OC2COC2)n1 [Oxasulfuron] | 107% | 93.3% | 93% | 83.6% | 16.5 min | 111% | 103%
11 | O=C1Nc2ccc(Cl)cc2C(c2ccccc2)=NC1O (stereo not given) [Oxazepam] | 99.5% | 98.7% | 91.9% | 93.9% | 18.4 min | 104% | 98.7%
12 | NC(=O)N1c2ccccc2CC(=O)c2ccccc21 [Oxcarbazepin] | 84.4% | 84.7% | 82.7% | 83.7% | 16.4 min | 87.8% | 78.5%
13 | C=CCOc1ccccc1OCC(O)C[NH2+]C(C)C (stereo not given) [Oxprenolol] | 78.4% | 82.4% | 85.9% | 87.2% | 13.4 min | 105% | 107%
14 | CC[NH+](CC)CC#CCOC(=O)C(O)(c1ccccc1)C1CCCCC1 (stereo not given) [Oxybutynin] | 92.8% | 75.1% | 89.1% |  | 16.2 min | 90.1% | 136%
15 | CCOc1cc(Oc2ccc(C(F)(F)F)cc2Cl)ccc1[N+](=O)[O-] [Oxyfluorfen] | 93.8% | 83.9% | 82.2% | 108% | 21 min | 87.1% | 92.7%
16 | O=C([O-])C(F)(F)C(F)(F)C(F)(F)F [PFBA] | 95.9% | 42.8% | 90.2% | 84.9% | 18.6 min | 96.7% | 86.3%
17 | CC(=O)Nc1ccc(O)cc1 [Paracetamol (=3-Acetamidophenol)] | 76.7% |  | 79.1% |  | 10.3 min | 101% | 
18 | Nc1nc(=O)c2ncn(CCC(CO)CO)c2[nH]1 [Penciclovir] | 84.2% | 78.3% | 83% | 91.8% | 7.67 min | 97.1% | 104%
19 | CCCC(Cn1cncn1)c1ccc(Cl)cc1Cl (stereo not given) [Penconazol] | 98.5% | 97.1% | 100% | 87.3% | 20.9 min | 105% | 105%
20 | O=C(Nc1ccccc1)N(Cc1ccc(Cl)cc1)C1CCCC1 [Pencycuron] | 84.2% | 110% |  | 80.4% | 21.4 min | 117% | 124%
21 | CCCC(NC(C)C(=O)N1C(C(=O)[O-])CC2CCCCC21)C(=O)OCC (stereo not given) [Perindopril] | 97.7% | 88.8% | 91.5% | 138% | 15.5 min | 95% | 96.1%
22 | CCOCCN(C(=O)CCl)C(=C(C)C)c1ccccc1 [Pethoxamid] | 95.5% | 85.7% | 86.7% | 99.6% | 20.3 min | 87.2% | 92.5%
23 | Cc1cc(=O)n(-c2ccccc2)n1C [Phenazon (=Antipyrin)] | 83.8% | 93.4% | 91.4% | 95.5% | 13.3 min | 106% | 100%
24 | C[N+](C)([O-])CCC(c1ccccc1)c1ccccn1 (stereo not given) [Pheniramine-N-oxide] | 94.5% | 93.4% | 88.3% | 89% | 11.6 min | 105% | 94.2%
25 | C[NH+](C)CCC(c1ccccc1)c1ccccn1 (stereo not given) [Pheniramine] | 87.9% | 93.7% | 91.7% | 86.8% | 11 min | 113% | 87.2%
26 | O=C1NC(=O)C(c2ccccc2)(c2ccccc2)N1 [Phenytoin] | 90.8% |  |  |  | 17 min | 98.4% | 112%
27 | CCC(C)OC(=O)N1CCCCC1CCO (stereo not given) [Picaridin (=Icaridin)] | 97.2% | 91.8% | 93.9% | 96.2% | 19 min | 94.9% | 99.4%

Row | SMILES | absolute recovery ([1]; nanopure water) | absolute recovery ([1]; surface water) | absolute recovery ([1]; wastewater effluent) | absolute recovery ([1]; wastewater influent) | LC retention time [2] | absolute recovery ([3]; wastewater effluent) | absolute recovery ([3]; wastewater influent)
28 | COC=C(C(=O)OC)c1ccccc1COc1cccc(C(F)(F)F)n1 [Picoxystrobin] | 94.1% | 94.9% | 99.7% | 81.3% | 20.3 min | 94.2% | 121%
29 | CCc1ccc(CCOc2ccc(CC3SC(=O)[N-]C3=O)cc2)nc1 (stereo not given) [Pioglitazone] | 93.3% | 98.1% | 104% | 90.7% | 14.3 min | 107% | 104%
30 | CCCCOCCOCCOCc1cc2c(cc1CCC)OCO2 [Piperonyl-butoxide] | 75.2% | 66.7% | 88.9% |  | 22.7 min | 125% | 88.2%
31 | Cc1nc(N(C)C)nc(OC(=O)N(C)C)c1C [Pirimicarb] | 99.4% | 94.3% | 93.5% | 94.1% | 14.1 min | 102% | 98.7%
32 | CCCCOc1ccc(OCCC[NH+]2CCOCC2)cc1 [Pramoxine] | 87.7% | 95.3% | 89.4% | 84% | 15.1 min | 105% | 91%
33 | CCC(C)C(=O)OC1CC(O)C=C2C=CC(C)C(CCC(O)CC(O)CC(=O)[O-])C21 (stereo not given) [Pravastatin] | 92.4% | 91.2% | 94% | 95.1% | 18.4 min | 99.2% | 103%
34 | O=C(C1CCCCC1)N1CC(=O)N2CCc3ccccc3C2C1 (stereo not given) [Praziquantel] | 98.3% | 86.5% | 87.2% | 98.8% | 19.5 min | 88.4% | 89.8%
35 | CC12C=CC(=O)C=C1CCC1C2C(O)CC2(C)C1CCC2(O)C(=O)CO (stereo not given) [Prednisolon] | 88% | 82.7% | 82.1% | 91.4% | 18 min | 104% | 63.1%
36 | CC12C=CC(=O)C=C1CCC1C2C(=O)CC2(C)C1CCC2(O)C(=O)CO (stereo not given) [Prednisone] | 81% | 78.3% | 76.4% | 87.1% | 17.3 min | 96.6% | 58.2%
37 | CCC[NH2+]C(C)C(=O)Nc1ccccc1C (stereo not given) [Prilocain] | 82.5% | 83% | 81.8% | 87.2% | 11.7 min | 109% | 106%
38 | CCC1(c2ccccc2)C(=O)NCNC1=O [Primidon] | 94.9% | 92.4% | 88.6% | 92.9% | 14.5 min | 103% | 98.5%
39 | CCCN(CCOc1c(Cl)cc(Cl)cc1Cl)C(=O)n1ccnc1 [Prochloraz] | 99.3% | 96.4% | 93.9% | 92.3% | 20.6 min | 103% | 101%
40 | CC(=O)C1CCC2C3CCC4=CC(=O)CCC4(C)C3CCC12C (stereo not given) [Progesteron] | 92.4% | 97.3% | 94.7% | 95.7% | 21.4 min | 93.9% | 6.6%
41 | COc1nc(NC(C)C)nc(NC(C)C)n1 [Prometon F] | 88.1% | 95.5% | 91.6% | 92.7% | 15.8 min | 104% | 106%
42 | CSc1nc(NC(C)C)nc(NC(C)C)n1 [Prometryn G] | 97.7% | 92.8% | 92.4% | 94.1% | 18.2 min | 94.8% | 94.8%
43 | CC(C)N(C(=O)CS(=O)(=O)[O-])c1ccccc1 [Propachlor-ESA] | 93.1% | 94.4% | 91.1% | 96.4% | 19.4 min | 108% | 96.6%
44 | CC(C)N(C(=O)C(=O)[O-])c1ccccc1 [Propachlor-OXA] | 96% | 73.3% | 93.5% | 102% | 17.8 min | 105% | 100%
45 | CC(C)N(C(=O)CCl)c1ccccc1 [Propachlor] | 84.3% | 87% | 81.1% | 93.3% | 18.4 min | 83.8% | 76.9%
46 | CCCOC(=O)NCCC[NH+](C)C [Propamocarb] | 83% | 83.9% | 84.1% | 86.5% | 8.99 min | 105% | 105%
47 | CC(C)=NOCCOC(=O)C(C)Oc1ccc(Oc2cnc3cc(Cl)ccc3n2)cc1 (stereo not given) [Propaquizafop] | 79.1% | 91.4% | 93.7% | 80.9% | 22.4 min | 68.4% | 13.2%
48 | CC(C)Nc1nc(O)nc(NC(C)C)n1 [Propazine-2-hydroxy I] | 103% | 96.9% | 94.2% | 88% | 12.7 min | 104% | 113%
49 | CCCC1COC(Cn2cncn2)(c2ccc(Cl)cc2Cl)O1 (stereo not given) [Propiconazol] | 97.2% | 94.8% | 91.8% |  | 21.1 min | 104% | 101%
50 | CCC(=O)OC(Cc1ccccc1)(c1ccccc1)C(C)C[NH+](C)C (stereo not given) [Propoxyphene] | 85.3% | 94.6% | 91.5% | 72.4% | 15.6 min | 108% | 110%
51 | CC(C)[NH2+]CC(O)COc1cccc2ccccc12 (stereo not given) [Propranolol] | 100% | 96.8% | 93.7% | 86.3% | 14.4 min | 105% | 100%
52 | C#CC(C)(C)NC(=O)c1cc(Cl)cc(Cl)c1 [Propyzamide] | 97.1% | 88.9% | 87.8% | 101% | 20 min | 82% | 88.4%
53 | CCCOc1nc2ccc(I)cc2c(=O)n1CCC [Proquinazid] | 76.1% | 73.6% | 78% | 65% | 24.6 min | 84.4% | 62.4%
54 | COc1nc(C)nc(NC(=O)[N-]S(=O)(=O)c2ccccc2CCC(F)(F)F)n1 [Prosulfuron] | 106% | 113% | 104% | 102% | 19.3 min | 108% | 102%
